From PMC3030271 (ACS medicinal chemistry letters, 2010)

Tests used:
Assay type in all cases: cell-based
[1] = molecular target: T1, hA3AR (Homo sapiens, UniProt P0DMS8); assay: Cyclic AMP functional assay at the hA3AR expressed in CHO cells
T1 sequence (P0DMS8 1-318): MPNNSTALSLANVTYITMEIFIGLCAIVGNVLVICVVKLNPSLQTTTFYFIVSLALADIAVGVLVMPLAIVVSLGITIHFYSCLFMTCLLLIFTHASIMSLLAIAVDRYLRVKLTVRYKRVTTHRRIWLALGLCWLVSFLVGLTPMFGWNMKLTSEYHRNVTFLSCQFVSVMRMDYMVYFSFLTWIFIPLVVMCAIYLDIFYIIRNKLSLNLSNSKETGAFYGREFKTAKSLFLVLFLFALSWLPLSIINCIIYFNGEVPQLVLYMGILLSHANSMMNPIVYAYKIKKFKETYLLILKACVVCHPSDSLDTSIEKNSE

[2] = molecular target: hA2AAR (Homo sapiens, UniProt P29274); assay: Cyclic AMP functional assay at the hA2AAR expressed in CHO cells; conditions: compared to the standard CGS21680
[3] = molecular target: T2, hA2BAR (Homo sapiens, UniProt P29275); assay: Cyclic AMP accumulation at the hA2BAR expressed in CHO cells
T2 sequence (P29275 1-332): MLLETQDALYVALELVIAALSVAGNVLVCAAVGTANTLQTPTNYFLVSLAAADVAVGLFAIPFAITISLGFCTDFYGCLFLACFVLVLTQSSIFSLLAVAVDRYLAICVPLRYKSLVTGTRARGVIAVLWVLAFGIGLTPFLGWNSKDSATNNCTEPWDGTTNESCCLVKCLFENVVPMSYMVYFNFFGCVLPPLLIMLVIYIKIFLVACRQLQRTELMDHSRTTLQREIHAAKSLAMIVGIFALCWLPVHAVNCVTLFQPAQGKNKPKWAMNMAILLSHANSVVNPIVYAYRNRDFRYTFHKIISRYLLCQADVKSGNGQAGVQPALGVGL

Sequence of hA2AAR (P29274 whole entry): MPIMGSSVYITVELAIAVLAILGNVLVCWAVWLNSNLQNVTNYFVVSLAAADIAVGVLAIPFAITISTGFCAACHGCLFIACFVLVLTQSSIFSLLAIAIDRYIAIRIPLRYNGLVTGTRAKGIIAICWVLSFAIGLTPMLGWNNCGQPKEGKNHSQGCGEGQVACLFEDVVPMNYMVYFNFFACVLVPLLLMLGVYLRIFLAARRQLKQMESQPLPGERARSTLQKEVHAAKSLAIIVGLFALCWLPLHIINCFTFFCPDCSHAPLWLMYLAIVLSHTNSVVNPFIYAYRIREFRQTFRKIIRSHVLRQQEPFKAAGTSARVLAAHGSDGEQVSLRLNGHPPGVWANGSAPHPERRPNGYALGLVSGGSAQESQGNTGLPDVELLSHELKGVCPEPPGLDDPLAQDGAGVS

Row | Structure (SMILES) | Functional behaviour at the hA3AR (cyclic AMP assay) [1] | Functional behaviour at the hA2AAR (cyclic AMP assay) [2] | Functional behaviour at the hA2BAR (cyclic AMP accumulation) [3]
1 | CCCCC#Cc1nc(N)c2ncn([C@@H]3SC[C@@H](O)[C@H]3O)c2n1 [Compound 4a] | potent and full antagonists | full agonist | weak partial agonist
2 | CCCC/C=C/c1nc(N)c2ncn([C@@H]3SC[C@@H](O)[C@H]3O)c2n1 [Compound 4b] | potent and full antagonists | – | –
